Laboratory results reported in the supplement of paper PMC13380429.

How the values were obtained:
Conditions in all cases: 72 h
[1] = system: Caco-2; experiment: cell viability relative to DMSO; higher = less toxic
[2] = system: Vero E6; experiment: as above
[3] = system: Calu-3; experiment: as above
[4] = system: HepG2; experiment: as above
[5] = system: U2OS; experiment: as above
[6] = system: Caco-2; experiment: relative viability EC50 (midpoint between 100% and the lowest measured viability); higher = less toxic
[7] = system: Vero E6; experiment: as above
[8] = system: Calu-3; experiment: as above
[9] = system: HepG2; experiment: as above
[10] = system: U2OS; experiment: as above
[11] = system: Caco-2; experiment: drug sensitivity score (DSS) for viability; higher = more toxic; extreme values may be limits of the assay
[12] = system: Vero E6; experiment: as above
[13] = system: Calu-3; experiment: as above
[14] = system: HepG2; experiment: as above
[15] = system: U2OS; experiment: as above

SMILES | cell viability ([1]; 1 nM) [%] | cell viability ([1]; 10 nM) [%] | cell viability ([1]; 100 nM) [%] | cell viability ([1]; 1000 nM) [%] | cell viability ([1]; 10000 nM) [%] | cell viability ([2]; 1 nM) [%] | cell viability ([2]; 10 nM) [%] | cell viability ([2]; 100 nM) [%] | cell viability ([2]; 1000 nM) [%] | cell viability ([2]; 10000 nM) [%] | cell viability ([3]; 1 nM) [%] | cell viability ([3]; 10 nM) [%] | cell viability ([3]; 100 nM) [%] | cell viability ([3]; 1000 nM) [%] | cell viability ([3]; 10000 nM) [%] | cell viability ([4]; 1 nM) [%] | cell viability ([4]; 10 nM) [%] | cell viability ([4]; 100 nM) [%] | cell viability ([4]; 1000 nM) [%] | cell viability ([4]; 10000 nM) [%] | cell viability ([5]; 1 nM) [%] | cell viability ([5]; 10 nM) [%] | cell viability ([5]; 100 nM) [%] | cell viability ([5]; 1000 nM) [%] | cell viability ([5]; 10000 nM) [%] | relative viability EC50 [6] [µM] | relative viability EC50 [7] [µM] | relative viability EC50 [8] [µM] | relative viability EC50 [9] [µM] | relative viability EC50 [10] [µM] | drug sensitivity score [11] | drug sensitivity score [12] | drug sensitivity score [13] | drug sensitivity score [14] | drug sensitivity score [15]
CC(=O)[C@@]1(O)CC[C@H]2[C@@H]3C[C@H](C)C4=CC(=O)C=C[C@]4(C)[C@@]3(F)[C@@H](O)C[C@@]21C [fluorometholone] | 94.1 | 96.2 | 96.4 | 99.7 | 124 | 105 | 101 | 102 | 97.5 | 101 | 93.2 | 98.3 | 94.1 | 92.5 | 87.9 | 96.3 | 96.7 | 101 | 90.8 | 96.9 | 96.4 | 97.9 | 91.1 | 97 | 92.3 | > 10 | > 10 | > 10 | > 10 | > 10 | 0 | 0 | 0 | 0 | 0
COc1ccc(CC(C)NCC(O)c2ccc(O)c(NC=O)c2)cc1 (stereo not given) [formoterol] | 96 | 90.2 | 93.4 | 100 | 98.5 | 93.9 | 91.5 | 97.2 | 95.3 | 104 | 99.3 | 101 | 101 | 88.1 | 92.4 | 101 | 89.4 | 98.5 | 93.7 | 105 | 95.5 | 102 | 97.2 | 105 | 97.8 | > 10 | > 10 | > 10 | > 10 | > 10 | 0 | 0 | 0.5 | 0 | 0
C#C[C@]1(O)C=C[C@H]2[C@@H]3CCC4=CC(=O)CC[C@@H]4[C@H]3CC[C@@]21CC [gestodene] | 90.1 | 89.6 | 98.9 | 100 | 98.7 | 95.9 | 96.8 | 96.3 | 94.3 | 106 | 95.9 | 101 | 101 | 88.5 | 108 | 103 | 102 | 111 | 105 | 99.7 | 96.3 | 99.2 | 94.3 | 96 | 102 | > 10 | > 10 | > 10 | > 10 | > 10 | 0 | 0 | 0 | 0 | 0
CC(C)=CCC[C@](C)(O[C@@H]1O[C@H](CO)[C@@H](O)[C@H](O)[C@H]1O)[C@H]1CC[C@]2(C)[C@@H]1[C@H](O)C[C@@H]1[C@@]3(C)CC[C@H](O[C@@H]4O[C@H](CO)[C@@H](O)[C@H](O)[C@H]4O[C@@H]4O[C@H](CO)[C@@H](O)[C@H](O)[C@H]4O)C(C)(C)[C@@H]3CC[C@]12C [ginsenoside-RD] | 105 | 98.7 | 94.4 | 92.3 | 104 | 99.6 | 101 | 97.2 | 100 | 99.3 | 105 | 103 | 101 | 107 | 99.8 | 94.2 | 97.3 | 101 | 88.9 | 89.6 | 102 | 98.9 | 101 | 100 | 102 | > 10 | > 10 | > 10 | > 10 | > 10 | 0 | 0 | 0 | 0.3 | 0
CN1CC[C@@H](NC(=O)Nc2ccc(C#N)cc2)C[C@@H]1c1nc2ccccc2[nH]1 [glasdegib] | 98.4 | 96.5 | 94.1 | 97.1 | 83.5 | 102 | 103 | 102 | 100 | 97.1 | 92.6 | 110 | 96.9 | 111 | 104 | 108 | 99 | 99.1 | 96.2 | 92 | 96.3 | 102 | 94.9 | 98.5 | 98.3 | > 10 | > 10 | > 10 | > 10 | > 10 | 0.6 | 0 | 0 | 0 | 0
